This is an account of results in US12559490B2, “Compositions and methods for modulating hair growth” (The Regents of the University of California, priority 2020, dated 2026).

Data set [1] can be described thus: Solubility testing in a polyethylene glycol/transcutol/ethanol/DMSO formulation. In kind it is physicochemical. To be noted: for Conc.: concentration tested in formulation of about 25-75% polyethylene glycol, 5-20% transcutol, 5-50% ethanol, 5-10% DMSO, room temperature, Notes column says whether it dissolved; for Notes (dissolved / failed to dissolve): stirred 1 hour, overnight or 24 hours at room temperature. The source says:
Results are detailed in the table below.

In data set [2] the target is T1, Mitochondrial Pyruvate Carrier (MPC) (Homo sapiens, UniProt O95563+Q9Y5U8).
T1 sequence (Q9Y5U8 1-109): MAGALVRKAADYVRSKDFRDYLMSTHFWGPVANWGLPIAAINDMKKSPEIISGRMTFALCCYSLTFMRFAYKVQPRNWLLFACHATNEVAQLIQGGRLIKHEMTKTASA
T1 sequence (O95563 1-127): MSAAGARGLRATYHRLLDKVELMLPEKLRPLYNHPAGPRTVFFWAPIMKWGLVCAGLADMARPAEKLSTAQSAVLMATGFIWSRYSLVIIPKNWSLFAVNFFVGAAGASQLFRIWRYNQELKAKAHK
Briefly: Pyruvate-driven respiration (OCR, XF96) in permeabilized HepG2 cells to test MPC. It is filed as cell-based. To be noted: pyruvate/malate substrate, nine-point dose-response, 1 or 3 replicates.

As to `N#C/C(=C\c1cn(Cc2cc(C(F)(F)F)cc(C(F)(F)F)c2)c2ncccc12)C(=O)O` [JXL069, reference compound], in data set [1], the Conc. came out at 0.027% w/w and the “Notes (dissolved / failed to dissolve)” value is given as “Stirred overnight at room temperature; dissolved”. This molecule also gave a 50% inhibitory concentration (IC50) in data set [2] of 51.2 nM. The corresponding values for `N#C/C(=C\c1cn(Cc2ccccc2C(F)(F)F)c2ncccc12)C(=O)O` [PP26, (E)-2-Cyano-3-(1-(2-(trifluoromethyl)benzyl)-1H-pyrrolo[2,3-b]pyridin-3-yl) acrylic acid] are 0.1% w/w, “Stirred 1 hour at room temperature; dissolved” and 54 nM. For the molecule `N#C/C(=C\c1cn(Cc2cccc(C(F)(F)F)c2)c2ncccc12)C(=O)O` [PP27, (E)-2-Cyano-3-(1-(3-(trifluoromethyl)benzyl)-1H-pyrrolo[2,3-b]pyridin-3-yl) acrylic acid], in data set [1], the Conc. was found to be 0.15% w/w and the “Notes (dissolved / failed to dissolve)” value was “Stirred 1 hour at room temperature; dissolved”. The same molecule showed an IC50 in data set [2] of 36.3 nM. As to `N#C/C(=C\c1cn(Cc2ccccc2F)c2ncccc12)C(=O)O` [PP35, (E)-2-cyano-3-(1-(2-fluorobenzyl)-1H-pyrrolo[2,3-b]pyridin-3-yl)acrylic acid], in data set [1], the Conc. is recorded as 0.1% w/w. Also, the 50% inhibitory concentration (IC50) in data set [2] is 34 nM. In data set [1], `N#C/C(=C\c1cn(Cc2cccc(F)c2)c2ncccc12)C(=O)O` [PP36, (E)-2-cyano-3-(1-(3-fluorobenzyl)-1H-pyrrolo[2,3-b]pyridin-3-yl)acrylic acid] came in with a Conc. of 0.1% w/w. This molecule also gave an IC50 in data set [2] of 26 nM. For the molecule `N#C/C(=C\c1cn(Cc2ccc(F)cc2)c2ncccc12)C(=O)O` [PP37, (E)-2-cyano-3-(1-(4-fluorobenzyl)-1H-pyrrolo[2,3-b]pyridin-3-yl)acrylic acid], in data set [2], the half-inhibitory concentration (IC50) was 109 nM. In data set [2], `N#C/C(=C\c1cn(Cc2ccccn2)c2ncccc12)C(=O)O` [PP38, Sodium (E)-2-cyano-3-(1-(pyridin-2-ylmethyl)-1H-pyrrolo[2,3-b]pyridin-3-yl)acrylate] yielded an IC50 of 183 nM. In data set [2], `N#C/C(=C\c1cn(Cc2cccnc2)c2ncccc12)C(=O)O` [PP39, Sodium (E)-2-cyano-3-(1-(pyridin-3-ylmethyl)-1H-pyrrolo[2,3-b]pyridin-3-yl)acrylate] returned an IC50 of 262 nM. The same measure, in the same setting: the same measure for `N#C/C(=C\c1cn(Cc2ccncc2)c2ncccc12)C(=O)O` [PP40, Sodium (E)-2-cyano-3-(1-(pyridin-4-ylmethyl)-1H-pyrrolo[2,3-b]pyridin-3-yl)acrylate]: 411 nM.

The IC50 is the point on the concentration scale where inhibition reaches its midpoint. The low end stands for greater potency, the high end for weaker potency.
